Data set [1] deals with SOST expression. Nature of the data set: SOST expression in hMSC cells and primary human osteoblasts treated with growth factors and hormones (RT-PCR). Format: cell-based. To be noted: 72 hrs; for SOST expression, factor alone: hMSC cells (and primary human osteoblasts), RT-PCR; for SOST expression, steroid added in combination with BMP-4 versus BMP-4 alone: hMSC cells, vit D 10^−7M, RA 10^−6M, DEX 10^−7M. How it is done: (§1) As immature osteoblasts differentiate and become capable of mineralization, they express markers associated with the osteoblast phenotype (type I collagen and parathyroid hormone receptor (PTHr)). These markers were used to ascertain whether differentiation had occurred so that the influence of growth factors and hormones could be correlated with the stage differentiation as well as the level of SOST expression.
(§2) Human mesenchymal cells and primary human osteoblasts were plated in regular growth media containing 2% FCS at a density of 10,000 cells 1 cm^2. Test reagents (10^−7 M dexamethasone, 10^−6 M retinoic acid, 10 ng/ml TGF-β1, PTH (10^−8 M), 10 or 50 ng/ml IGF-1, 10^−7 M1,25-dihydroxyvitamin D3, and 50 to 300 ng/ml of bone morphogenetic proteins 2, 4 or 6) were added singly or in combination on the following day.

In data set [2] the test system is noggin expression. The data set is described as follows: noggin expression in hMSC cells treated with BMPs and steroids (RT-PCR). Type of data set: cell-based, human. To be noted: 72 hrs. How it is done:
as §1, §2

For data set [3], the system named is gremlin expression. Nature of the data set: gremlin expression in hMSC cells treated with BMPs and steroids (RT-PCR). The note with it: 72 hrs; for BMP-4 induced gremlin expression, steroid added with BMP-4: BMP-4 100 ng/ml; for gremlin expression, factor alone: RT-PCR. Format: cell-based, human. How it is done:
as §1, §2

The test system of data set [4] is PTHr expression. Nature of the data set: PTHr expression in hMSC cells treated with factors (RT-PCR). Format: cell-based, human. To be noted: 72 hrs, IGF-1 at 50 ng/ml, DEX 10^−7M. The source says: In this example, the effect of growth factors and hormones on SOST expression in hMSC cells or primary human osteoblasts was observed using RT-PCR. […] As immature osteoblasts differentiate and become capable of mineralization, they express markers associated with the osteoblast phenotype (type I collagen and parathyroid hormone receptor (PTHr)). These markers were used to ascertain whether differentiation had occurred so that the influence of growth factors and hormones could be correlated with the stage differentiation as well as the level of SOST expression.
Human mesenchymal cells and primary human osteoblasts were plated in regular growth media containing 2% FCS at a density of 10,000 cells 1 cm^2. Test reagents (10^−7 M dexamethasone, 10^−6 M retinoic acid, 10 ng/ml TGF-β1, PTH (10^−8 M), 10 or 50 ng/ml IGF-1, 10^−7 M1,25-dihydroxyvitamin D3, and 50 to 300 ng/ml of bone morphogenetic proteins 2, 4 or 6) were added singly or in combination on the following day. Cultures were continued for 24 to 120 hrs after which the cells were harvested for RNA isolation.

Data set [5] has as its system SOST expression. The data set is described as follows: BMP-6 induction of SOST expression in hMSC cells with test compounds (RT-PCR). Format: cell-based, human. The note with it: for Results (effect on BMP-6 induction of SOST expression): BMP-6, 72 hrs, compound at 1 × 10^−7 M. How it is done: The previous example illustrates that SOST expression was enhanced by bone morphogenetic proteins and modulated by steroids such as dexamethasone. In this example, human MSC cells were incubated with bone morphogenetic proteins in the presence of various test agents to determine whether other steroids and compounds could affect the BMP-induction of SOST. SOST expression was monitored by reverse transcriptase polymerase chain reaction (RT-PCR).
Human mesenchymal cells (hMSCs) were plated in regular growth media containing 2% FCS and treated with BMP-6 either alone or in combination with the test compounds. The cells were harvested 72 hrs later and RNA was prepared for RT-PCR analysis of SOST expression.

Data set [6] concerns caspase activity in hMSC cells. Nature of the data set: apoptosis of hMSC cells by caspase activity (Homogeneous Caspase ELISA). Format: cell-based, human. To be noted: for apoptosis of hMSC cells (caspase activity), rat versus human sclerostin: 24 hrs. How it is done: Human mesenchymal (hMSC) cells were plated in Osteoblast-inducing media (Biowhittaker's MSCGM medium supplemented with 100 nM dexamethasone, 50 μg/ml ascorbic acid, and 10 mM β-glycerophosphate) at a density of 10,000 cells/cm^2 in 96-well dishes.
For apoptosis assays, cells were treated with sclerostin or commercially available preparations of the BMP antagonists noggin, chordin, gremlin or twisted gastrulation (Tsg) for 24 hours prior to assay for caspase activity. In some experiments, cells were treated for various times with a partially purified preparation of baculovirus-expressed human sclerostin (0 to 30 μg/ml) or an equal volume of a protein preparation purified from Sf9 conditioned media (control) in the absence or presence of Calbiochem's caspase inhibitors. Cells were harvested and processed for apoptosis assays using the Homogeneous Caspase ELISA (Roche) or Cell Death (Histone-Associated DNA Fragmentation, Roche).

Data set [7] relates to alkaline phosphatase (ALP) activity in hMSC cells. The data set is described as follows: alkaline phosphatase activity in differentiating hMSC cells. Type of data set: cell-based, human. The note with it: hMSC cells, Osteoblast-Inducing media, 7 days. How it is done: hMSC cells were plated in 96-well tissue culture dishes at a density of 10,000 cells/cm^2 in Osteoblast-Inducing medium. Partially purified preparations of baculovirus-expressed sclerostin protein were prepared in sterile PBS using NAP-5 columns prior to use. Human sclerostin protein (0 to 30 μg/ml) or an equal volume of Sf9 conditioned media (Control) was added to cultures of hMSC cells at various times after plating (1 day, 8 days, 15 days, or 21 days). The effects of sclerostin on osteoblastic differentiation were assessed by measuring alkaline phosphatase activity (ALP, determined in cell layers using DEAA buffer (Pierce) containing 0.5% NP-40 and 10 mM p-nitrophenylphosphate), synthesis of collagen type I (Prolagen C ELISA), and calcium deposition for mineralization (colorimetric assay of acid lysates of cell layers, Sigma).

Data set [8] deals with BMP-6 stimulated alkaline phosphatase activity. Nature of the data set: BMP-6 stimulated alkaline phosphatase activity in mouse mesenchymal C3H10T1/2 cells. Format: cell-based. How it is done: C3H10T1/2 cells (ATCC Deposit No. CCL-226) were plated in 96-well dishes at a density of 25,000 cells per well in complete growth medium (DMEM with high glucose and glutamine supplemented with 10% FCS, 1% penicillin/streptomycin, 0.1 mM non-essential amino acids, 1 mM sodium pyruvate, 55 μM β-mercaptoethanol, and 20 mM HEPES, pH 7.3). C3H10T1/2 cells were used in a short-term (72 hr) assay to determine the effects of human sclerostin protein on BMP-induced ALP activity. Partially purified preparations of bacculovirus-expressed sclerostin protein were prepared in sterile PBS using NAP-5 columns prior to use. Sclerostin protein (0 to 50 μg/ml) or an equal volume of Sf9 conditioned media (control) was pre-incubated with 500 ng/ml BMP-6 for 1 hr prior to addition to cells. For comparison, similar incubations were carried out with anti-BMP-6 antibody and noggin. Cells were harvested 72 hrs later for determination of ALP activity.
To test the specificity of the sclerostin effect, human sclerostin that was synthesized with a FLAG tag, was pre-incubated for 2 hrs at 4° C. with an anti-FLAG antibody coupled to agarose beads. The mixture was then spun down at 10,000×g for 15 minutes at 4° C. and the supernatant treated as “sclerostin protein” in the above assay.

The test system of data set [9] is alkaline phosphatase (ALP) activity in hMSC cells. Nature of the data set: alkaline phosphatase activity in differentiating hMSC cells. Type of data set: cell-based, human. To be noted: sclerostin 10 μg/ml and increasing amounts of BMP-6.

“Also recorded” adds a separate entry of the source.

As to `C=C1/C(=C\C=C2/CCC[C@]3(C)[C@@H]([C@H](C)CCCC(C)(C)O)CC[C@@H]23)C[C@@H](O)C[C@@H]1O` [vitamin D, 1,25-dihydroxyvitamin D3, reference compound], in data set [1], the “SOST expression, factor alone” value is listed as “no effect” and the “SOST expression, steroid added in combination with BMP-4 versus BMP-4 alone” value (shortened to “SOST expression … with BMP-4 versus BMP-4 alone”) is “enhanced”. In addition, in [2], the “noggin expression, factor alone” value is listed as “increase”. For the same molecule, in data set [3], the “BMP-4 induced gremlin expression, steroid added with BMP-4” value is “did not alter” and the “gremlin expression, factor alone” value was “unchanged”.
As to `CC1=C(/C=C/C(C)=C/C=C/C(C)=C/C(=O)O)C(C)(C)CCC1` [retinoic acid, reference compound], in [1], the “SOST expression, factor alone” value was “no effect”.
With `C[C@@H]1C[C@H]2[C@@H]3CCC4=CC(=O)C=C[C@]4(C)[C@@]3(F)[C@@H](O)C[C@]2(C)[C@@]1(O)C(=O)CO` [Dexamethasone, dexamethasone, reference compound], in data set [1], the “SOST expression, factor alone” value is listed as “no effect” and the “SOST expression … with BMP-4 versus BMP-4 alone” value is on record as “abolished the stimulatory effect”. The “SOST expression … with BMP-4 versus BMP-4 alone” value in data set [1] (listed as dexamethasone) is given as “abolished the stimulatory effect; also recorded: significantly suppressed; also recorded: depressed”. In addition, the “noggin expression, factor alone” value in data set [2] is on record as “increase”. Besides, the PTHr expression entry in data set [4] is reported as “induced”. In addition, in data set [5] (72 hrs, no single concentration stated in the sentence), the “induction of SOST expression by BMP-6 (BMP-induced SOST expression)” value is on record as “blocks”. For the same molecule, the “Results (effect on BMP-6 induction of SOST expression)” value in data set [5] was “blocked; also recorded: Inhibition”. The “Results (effect on BMP-6 induction of SOST expression)” value in data set [5] (listed as DEX) is on record as “blocked”. For the same molecule, in [3], the “BMP-4 induced gremlin expression, steroid added with BMP-4” value is reported as “diminished” and the “gremlin expression, factor alone” value is recorded as “decreased”.
Take IGF-1: insulin-like growth factor-1: the “SOST expression, factor alone” value in [1] is “enhanced”. The PTHr expression result in [4] is “induced”.
For TGF-β: transforming growth factor-β, in [1], the “SOST expression, factor alone” value was “no effect”.

B1: PTH: parathyroid hormone (PTH), tested at 10^−8 M (peptide, UniProt P01270 32-115, looked up)
Parathyroid hormone: SVSEIQLMHNLGKHLNSMERVEWLRKKLQDVHNFVALGAPLAPRDAGSQRPRKKEDNVLVESHEKSLGEADKADVNVLTKAKSQ
modifications: Parathyroid hormone
notes: parathyroid hormone (PTH), tested at 10^−8 M
Take B1: in data set [1], the “SOST expression, factor alone” value is reported as “no effect”.

B2: noggin: BMP antagonist protein (mouse noggin), purchased from R & D Systems (protein)
chain: QHYLHIRPAPSDNLPLVDLIEHPDPIFDPKEKDLNETLLRSLLGGHYDPGFMATSPPEDRPGGGGGPAGGAEDLAELDQLLRQRPSGAMPSEIKGLEFSEGLAQGKKQRLSKKLRRKLQMWLWSQTFCPVLYAWNDLGSRFWPRYVKVGSCFSKRSCSVPEGMVCKPSKSVHLTVLRWRCQRRGGQRCGWIPIQYPIISECKCSC
For the molecule B2, in [6] (hMSC in osteoblast-inducing media, 20 μg/ml sclerostin or other protein, 24 hours), the caspase activity result is listed as “no increase; also recorded: no significant effect”. Besides, the ALP activity result in data set [7] (protein at 1 μg/ml) is “no effect”; in [7] (protein at 5 μg/ml), “significantly increased”. Further, in [8] (500 ng/ml BMP-6, 72 hrs), the “stimulatory effect of BMP-6 on alkaline phosphatase activity (antagonism)” value is listed as “antagonized”. Besides, the “IC50, decrease of BMP-6 stimulated alkaline phosphatase activity” value in data set [8] (pre-incubated with 500 ng/ml BMP-6 for 1 hr, 72 hrs) is 0.3 µg/mL.

B3: rat sclerostin: rat sclerostin protein (SEQ ID NO:8) (protein, listed as Rattus norvegicus)
chain: MQLSLAPCLACLLVHAAFVAVESQGWQAFKNDATEIIPGLREYPEPPQELENNQTMNRAENGGRPPHHPYDTKDVSEYSCRELHYTRFVTDGPCRSAKPVTELVCSGQCGPARLLPNAIGRVKWWRPNGPDFRCIPDRYRAQRVQLLCPGGAAPRSRKVRLVASCKCKRLTRFHNQSELKDFGPETARPQKGRKPRPRARGAKANQAELENAY
Take B3: the “apoptosis of hMSC cells (caspase activity), rat versus human sclerostin” value is recorded as “induced the apoptosis” in data set [6] and “increased the apoptosis of hMSC cells but to a lesser extent” in data set [6] (listed as Rat sclerostin).

B4: BMP-4: bone morphogenetic protein 4, purchased from R & D Systems (protein, UniProt P12644 293-408, looked up)
Bone morphogenetic protein 4: SPKHHSQRARKKNKNCRRHSLYVDFSDVGWNDWIVAPPGYQAFYCHGDCPFPLADHLNSTNHAIVQTLVNSVNSSIPKACCVPTELSAISMLYLDEYDKVVLKNYQEMVVEGCGCR
Take B4: in data set [1], the “SOST expression, factor alone” value is “enhanced; also recorded: up-regulated; also recorded: significantly increased”. The “noggin expression, factor alone” value in data set [2] is “up-regulated; also recorded: enhanced; also recorded: increase”. The “gremlin expression, factor alone” value in data set [3] was “only modestly increased; also recorded: enhanced”.

B5: BMP-6: bone morphogenetic protein 6, purchased from R & D Systems (protein)
chain: QQSRNRSTQSQDVARVSSASDYNSSELKTACRKHELYVSFQDLGWQDWIIAPKGYAANYCDGECSFPLNAHMNATNHAIVQTLVHLMNPEYVPKPCCAPTKLNAISVLYFDDNSNVILKKYRNMVVRACGCH
For the molecule B5, the “reversal of the inhibitory effect of sclerostin on alkaline phosphatase” value in data set [9] was “partially reversed”. Also, the “SOST expression, factor alone” value in data set [1] is given as “enhanced; also recorded: up-regulated”. Further, the “noggin expression, factor alone” value in data set [2] is given as “up-regulated”. The “gremlin expression, factor alone” value in data set [3] is on record as “only modestly increased”. For the same molecule, the “ALP activity, effect of BMP-6” value in data set [8] (72 hrs) is on record as “increased in a dose-dependent manner; also recorded: stimulatory effect”.

Source of the values: patent US7655420B2, “Methods to increase or decrease bone density” (Celltech R & D, Inc., priority 2002, dated 2010).
